These results are taken from patent US20050113443A1, “Modulation of airway inflammation in patients with cystic fibrosis and related diseases” (priority 2003, published 2005).

Test [1] has as its system C57BL/6 mice challenged intratracheally with mucoid P. aeruginosa (strain M57-15). Description: Mouse model of chronic airway inflammation and infection of cystic fibrosis (mucoid P. aeruginosa entrapped in agarose beads). It is filed as in vivo. Conditions: vs vehicle controls. The text has this:
Chronic infections with mucoid P. aeruginosa tend to persist in patients with CF. In turn, chronic airway infection with mucoid P. aeruginosa is a major cause of morbidity and mortality among CF patients. In order to achieve chronic airway infections with P. aeruginosa in murine models, it is necessary to enmesh the bacteria with an immobilizing agent such as agar (Pediatr Pulmonol 30:413.; Lab Animals 36:291). This also provides an experimental mimic of the growth of P. aeruginosa as a biofilm, which appears to be its predominant state in the CF airway (Pediatr Pulmonol 30:413, 2000; Pediatr Res 22:698, 1987; Trends Microbiol 9:50, 2001). C57/B16 mice are used, as the inflammatory response to P. aeruginosa infection of this moderately susceptible strain is a fair mimic of that seen in CF patients (Pediatr Pulmonol 30:413). Indeed, in C57/B16 mice, agar bead delivery of P. aeruginosa leads to histopathological changes, including bronchiectasis, similar to those found in patients with CF (Pediatr Pulmonol 30:413, 2000). This chronic model allows for the characterization of the effects of LX analogues on chronic, ongoing airway infection and inflammation using a model that is highly relevant to, and a reasonable mimic of, the CF airway.
Modifications were made in a previously described model (van Heeckeren, A. M. etal Lab Anim 36, 291, 2002). 6-8 week old female C57BL/6 mice were immunized in the dermis of the ear with heat-killed P. aeruginosa (mucoid strain M57-15) in incomplete Freund's adjuvant 10 days prior to P. aeruginosalagar bead challenge. Mice were challenged intratracheally (non-traumatically as previously described, Wills-Karp, M. et al. Science 282, 2258, 1998) with 3×10^4 P. aeruginosa (mucoid strain M57-15) entrapped in […] agarose beads. Beginning 1 day prior to such challenge, mice were treated with an LXA4 analogue (15-epi-16-[p-fluorophenoxy LXA4] methyl ester) by oral administration, through placing 10 μg/ml of the analogue in the drinking water (Gewirtz, A. T. et al. J Immunol 168, 5260, 2002), supplemented with a single daily intravenous dose of 1 μg by tail vein. Controls received trace volumes (identical to that administered to lipoxin analogue-treated mice) of ethanol in drinking water and intravenously. Mice were weighed daily. Five days after P. aeruginosa/agar bead challenge, mice were sacrificed, BAL was performed, and lungs were harvested for measurement of lung Pseudomonas burden and myeloperoxidase by standard techniques (van Heeckeren, A. M. et al Lab Anim 36, 291, 2002; Wills-Karp, M. et al. Science 282, 2258, 1998; Andrews, P. C. et al. Anal Biochem 127, 346, 1982). Animal care was provided in accordance with National Institutes of Health guidelines. This was done in order to model an additional immunological feature of individuals with cystic fibrosis and P. aeruginosa colonization/infection: potent adaptive immune responses, marked by anti-pseudomonal antibodies and T cells reactive with pseudomonal proteins.
C57/B16 mice were challenged intratracheally (non-traumatically as previously described [Science 282:2258, 1998; Nature Immunol 1:221,2000]) with 3×10^4 P. aeruginosa (mucoid strain M57-15) entrapped in agar beads (70-200 uM). […]

The test system of test [2] is primary human bronchial epithelial cells. Description: P. aeruginosa-induced IL-8 secretion by primary human bronchial epithelial cells (ELISA). It is filed as cell-based. The following applies: cells treated 2 h with analogue (nanomolar concentrations), stimulated 1 h with 3×10^7 cfu P. aeruginosa PA01, supernatants after 4 more hours, vs vehicle (0.01% ethanol), FIG. 2, P<0.002. As for the experimental part: We further examined whether LX analogues were able to inhibit P. aeruginosa-induced IL 8 production from primary human bronchial epithelial cells. Primary bronchial epithelial cells from non-smokers obtained from Clonetics/Cambrex were grown until subconfluent, treated for 2 h with LXA4 analogue or vehicle control (0.01% ethanol), stimulated for 1 h with 3×10^7 cfu of P. aeruginosa strain PA01, and subsequently washed. Cell-free supernatants were harvested after 4 more hours of incubation, and analyzed by ELISA for IL-8 secretion. For this purpose we used the metabolically stable analog 15-epi-16-(p-fluorophenoxy) LXA4 methyl ester, prepared according to Example 2. […] Primary human bronchial epithelial cells were pretreated with an LXA4 analogue (15-epi-16-[p-fluorophenoxy LXA4] methyl ester) or vehicle control and subsequently stimulated with P. aeruginosa strain PA01. IL-8 was measured in cell-free supernatants. Mean IL-8 production was 1620±116 pg/ml in vehicle control cultures.

Structures are written as SMILES.

As to `COC(=O)CCC[C@H](O)[C@H](O)/C=C/C=C/C=C\C=C\[C@H](O)COc1ccc(F)cc1` [(5S, 6R, 15S)-trihydroxy-16-(4-fluorophenoxy)-hexadeca-(7E, 9E, 11Z,13E)-tetraenoic acid methyl ester], the weight loss entry in test [1] (10 μg/ml in drinking water plus 1 μg i.v. daily from 1 day before challenge, weighed daily, FIG. 3) is “less weight loss”. Further, in test [1] (10 μg/ml in drinking water plus 1 μg i.v. daily, weighed daily, FIG. 3), the “recovery of lost weight” value is “earlier and more complete recovery of lost weight”. Besides, the “bronchoalveolar lavage total cell counts” value in test [1] (BAL five days after challenge, FIG. 4A) is “significant suppression of total cell counts”. Besides, the “airway neutrophilia (BAL neutrophils)” value in test [1] (BAL five days after challenge, FIG. 4B) was “significant inhibition of airway neutrophilia”. In test [1] (BAL five days after challenge, FIG. 4C), the airway lymphocyte counts result is given as “significant increase in airway lymphocyte counts”. In test [1] (BAL five days after challenge, FIG. 4D), the “percentage of airway macrophages” value is “increase in the percentage of airway macrophages”. For the same molecule, the “neutrophil/lymphocyte ratio in the airway” value in test [1] (BAL five days after challenge, FIG. 4E) is reported as “significant decrease”. In addition, the “neutrophil/macrophage ratio in the airway” value in test [1] (BAL five days after challenge, FIG. 4F) is reported as “significant decrease”. The “whole lung P. aeruginosa burden” value in test [1] (lungs harvested five days after challenge, quantitative microbiological techniques, FIG. 6) is listed as “decrease in lung bacterial burden”. The “whole lung myeloperoxidase levels (neutrophil accumulation in the lung parenchyma)” value in test [1] (lungs harvested five days after challenge, FIG. 5) is listed as “significantly reduced neutrophil accumulation in the lung parenchyma”. For the same molecule, the “P. aeruginosa-mediated IL-8 secretion” value is “inhibits” in test [2] and “significantly inhibits” in test [2] (listed as LXA4 analogue).
